Experimental data as given in patent publication US10265422B2, “Ethylenediaminetetraacetic acid bis(amide) derivatives and their respective complexes with Mn(II) ion for use as MRI contrast agent” (BRACCO IMAGING S.P.A., priority 2015, dated 2019).
Where two headings read alike, the source gives them in different places.

What was measured:
[1] = Relaxivity r1 in water at 20 MHz; type: physicochemical; settings: absence of HSA
[2] = biological target: human serum albumin (HSA) (Homo sapiens, UniProt P02768); settings: presence of HSA, 20 MHz
Sequence of human serum albumin (HSA) (P02768 25-609): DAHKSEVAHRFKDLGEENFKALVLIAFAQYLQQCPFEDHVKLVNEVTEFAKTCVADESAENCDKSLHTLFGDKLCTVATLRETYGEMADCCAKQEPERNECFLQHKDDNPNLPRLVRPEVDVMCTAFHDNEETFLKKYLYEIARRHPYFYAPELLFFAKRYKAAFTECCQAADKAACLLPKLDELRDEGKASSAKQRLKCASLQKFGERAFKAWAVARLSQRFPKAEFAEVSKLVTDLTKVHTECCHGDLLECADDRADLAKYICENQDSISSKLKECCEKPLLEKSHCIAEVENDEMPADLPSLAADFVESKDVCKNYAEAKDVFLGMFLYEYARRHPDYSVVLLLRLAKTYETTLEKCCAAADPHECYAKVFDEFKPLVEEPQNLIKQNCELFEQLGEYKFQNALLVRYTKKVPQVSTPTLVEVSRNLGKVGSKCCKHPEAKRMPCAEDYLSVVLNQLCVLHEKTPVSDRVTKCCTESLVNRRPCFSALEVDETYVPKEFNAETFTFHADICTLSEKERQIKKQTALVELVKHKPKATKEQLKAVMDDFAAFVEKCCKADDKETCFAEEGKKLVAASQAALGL

[3] = Decomplexation of Mn(II) complexes: transmetallation with Cu2+ ions followed by spectrophotometry; type: physicochemical; settings: pH 7.4, 25 °C, read-out: t½ (half-life of decomplexation) (converted)
Experimental: These studies were performed by following the transmetallation reaction between the Mn^2+ based complexes and Cu^2+ ions by spectrophotometry as reported in […]. Inorganic Chemistry (2012), 51, 10065-7.

[4] = calculated using rate constants

Compound | r1 (relaxivity) ([1]; 25 °C) [mM⁻¹ s⁻¹] | r1 (relaxivity) ([1]; 37 °C) [mM⁻¹ s⁻¹] | r1 HSA (relaxivity) ([2]; 25 °C) [mM⁻¹ s⁻¹] | r1 HSA (relaxivity) ([2]; 37 °C) [mM⁻¹ s⁻¹] | half-life [3, 4] [h] | half-life ([3]; footnote: half-life in seconds) [h]
O=C(O)CN(CC(=O)N1CCC(C(=O)O)CC1)C1CCCCC1N(CC(=O)O)CC(=O)N1CCC(C(=O)O)CC1 (stereo not drawn) | 4.97 | 3.75 | 5.98 | 4.65 | – | –
O=C(O)CN(CC(=O)N1CCC(Cc2ccccc2)CC1)C1CCCCC1N(CC(=O)O)CC(=O)N1CCC(Cc2ccccc2)CC1 (stereo not drawn) | 5.56 | 4.17 | 19.44 | 18.16 | – | –
O=C(O)CN(CC(=O)N1CCOCC1)C1CCCCC1N(CC(=O)O)CC(=O)N1CCOCC1 (stereo not drawn) | 3.77 | 2.95 | 7.64 | 6.57 | – | –
O=C(O)CN(CC(=O)N1CCCCC1)C1CCCCC1N(CC(=O)O)CC(=O)N1CCCCC1 (stereo not drawn) [drawing 20] | 4.43 | 3.49 | 5.63 | 4.56 | – | –
O=C(O)CN(CC(=O)NC(CO)CO)C1CCCCC1N(CC(=O)O)CC(=O)NC(CO)CO (stereo not drawn) [drawing 24] | 5.17 | 3.94 | 6.01 | 4.44 | – | –
CN(C)C(=O)CN(CC(=O)O)C1CCCCC1N(CC(=O)O)CC(=O)N(C)C (stereo not drawn) [drawing 25] | 4.37 | 3.43 | 13.10 | 9.94 | – | –
CCCCNC(=O)CN(CC(=O)O)C1CCCCC1N(CC(=O)O)CC(=O)NCCCC (stereo not drawn) [drawing 26] | 4.64 | 3.62 | 6.55 | 5.37 | – | –
O=C(O)CN(CC(=O)N1CCCCC1)c1ccccc1N(CC(=O)O)CC(=O)N1CCCCC1 [drawing 27] | 4.60 | 3.50 | 9.09 | 6.78 | – | –
O=C(O)CN(CC(=O)N1CCC(Cc2ccccc2)CC1)c1ccccc1N(CC(=O)O)CC(=O)N1CCC(Cc2ccccc2)CC1 [drawing 28] | 5.29 | 4.04 | 28.20 | 23.84 | – | –
O=C(O)CN(CC(=O)N1CCCCC1)C1CCCCC1N(CC(=O)O)CC(=O)N1CCCCC1 (stereo not drawn) [drawing 29] | – | – | – | – | 285 | –
O=C(O)CN(CC(=O)NC(CO)CO)C1CCCCC1N(CC(=O)O)CC(=O)NC(CO)CO (stereo not drawn) [drawing 37] | – | – | – | – | 166 | –
CN(C)C(=O)CN(CC(=O)O)C1CCCCC1N(CC(=O)O)CC(=O)N(C)C (stereo not drawn) [drawing 38] | – | – | – | – | 131 | –
CCCCNC(=O)CN(CC(=O)O)C1CCCCC1N(CC(=O)O)CC(=O)NCCCC (stereo not drawn) [drawing 39] | – | – | – | – | 57 | –
O=C(O)CN(CC(=O)N1CCCCC1)c1ccccc1N(CC(=O)O)CC(=O)N1CCCCC1 [drawing 40] | – | – | – | – | – | 0.0231
O=C(O)CN(CC(=O)N1CCC(Cc2ccccc2)CC1)c1ccccc1N(CC(=O)O)CC(=O)N1CCC(Cc2ccccc2)CC1 [drawing 41] | – | – | – | – | – | 0.0167
